From US20190274303A1, “USE OF A DIFLUORO-(2-HYDROXYPROPYL)PYRIDINE COMPOUND AS A FUNGICIDE FOR CONTROL OF PHYTOPATHOGENIC FUNGI OF BARLEY” (Dow AgroSciences LLC, priority 2016, published 2019)

Tested on: Rhyncosporium secalis (RHYNSE)
Test: Field assessment of barley leaf scald, Trial 1 (EC formulation alone or with adjuvants)
Assay type: in vivo
Settings: for % Control RHYNSE: based on AUDPC, winter barley, field, EC
Method: Field assessment of Rhyncosporium secalis (RHYNSE) in barley:
Trial 1: A fungicidal treatment containing Compound I was assessed against barley scald (RHYNSE) in two separate field trials. In the first trial, a fungicidal treatment containing an EC formulation of compound I by itself and in combination with two separate adjuvants was sprayed on barley plants at rates of 50, 100 and 150 grams active ingredient per hectare (g ai/ha). Fungicidal treatments were applied at B47-51 (curative, 3% infection on leaf 2) growth stage of winter barley (HORVW, Lomerit variety) under natural infection of RHYNSE. The treatment was part of an experimental trial designed as a randomized complete block with four replications and a plot of approximately 2×3 m. Compound I was applied at water volume of 200 L/ha, using a backpack precision plot sprayer (BICYCAIR, Flat Fan Air Assisted Nozle) and pressurized at 220 kPa.
Disease severity was recorded as a percentage of visual diseased foliage on whole plot. Barley leaf scald infection was assessed several times during the growing season with a final assessment 39 days after application of compound I. The disease infection was recorded following EPPO PP1/26 guideline prescriptions. Area under the disease progress curve (AUDPC) was calculated for each plot using the sets of recorded severity data. Relative AUDPC (% control based on AUDPC) was calculated as percent of the nontreated control.
In each case of the following Tables, the rating scale of percent control based on AUDPC is as follows: […]

Structure (SMILES): N#Cc1ccc(Oc2ccc(C(F)(F)C(O)(Cn3ncnc3S)c3ccc(F)cc3F)nc2)cc1 (stereo not shown) [Compound I, 4-((6-(2-(2,4-difluorophenyl)-1,1-difluoro-2-hydroxy-3-(5-mercapto-1H-1,2,4-triazol-1-yl)propyl)pyridin-3-yl)oxy)benzonitrile]
- % Control RHYNSE (50 g ai/ha, Agnique BP-420 (50% w/w at 0.15% v/v)): C (26-50)
- % Control RHYNSE (50 g ai/ha, Agnique BP-420 (50% w/w at 0.3% v/v)): B (51-74)
- % Control RHYNSE (50 g ai/ha, Agnique SBO-10 (0.15% v/v)): C (26-50)
- % Control RHYNSE (50 g ai/ha, adjuvant None): C (26-50)
- % Control RHYNSE (100 g ai/ha, Agnique BP-420 (50% w/w at 0.15% v/v)): B (51-74)
- % Control RHYNSE (100 g ai/ha, Agnique BP-420 (50% w/w at 0.3% v/v)): B (51-74)
- % Control RHYNSE (100 g ai/ha, Agnique SBO-10 (0.15% v/v)): B (51-74)
- % Control RHYNSE (100 g ai/ha, adjuvant None): C (26-50)
- % Control RHYNSE (150 g ai/ha, Agnique BP-420 (50% w/w at 0.15% v/v)): B (51-74)
- % Control RHYNSE (150 g ai/ha, Agnique BP-420 (50% w/w at 0.3% v/v)): B (51-74)
- % Control RHYNSE (150 g ai/ha, Agnique SBO-10 (0.15% v/v)): B (51-74)
- % Control RHYNSE (150 g ai/ha, adjuvant None): C (26-50)
- fungicidal effect on Rhyncosporium secalis (leaf scald of barley, general statement): significant fungicidal effect
